Data on 23 molecules can be found in patent US20090036448A1, “PYRIMIDINE DERIVATIVES AND METHODS OF TREATMENT RELATED TO THE USE THEREOF” (TAISHO PHARMECUTICAL CO., LTD., priority 2004, published 2009).

Structures are written as SMILES. Counter-ions that a name gives are not always drawn. Like-named read-outs stand apart in the source and are kept apart here.

For the assay, the target named is MCH receptor (Homo sapiens, UniProt Q99705). As to the kind of experiment: FLIPR/FDSS6000 functional assay: intracellular Ca2+ changes evoked by MCH. The class given is cell-based. To be noted: antagonist activity, 50 nM of MCH. An excerpt:
Subsequently, a functional based assay was used to confirm the lead hits, referred to as FLIPR™ (the Fluorometric Imaging Plate Reader) and FDSS6000™ (Functional Drug Screening System). This assay utilized a non-endogenous, constitutively active version of the MCH receptor.
The FLIPR and FDSS assays are able to detect intracellular Ca^2+ concentration in cells, which can be utilized to assess receptor activation and determine whether a candidate compound is an, for example, antagonist, inverse agonist or agonist to a Gq-coupled receptor. The concentration of free Ca^2+ in the cytosol of any cell is extremely low, whereas its concentration in the extracellular fluid and endoplasmic reticulum (ER) is very high. Thus, there is a large gradient tending to drive Ca^2+ into the cytosol across both the plasma membrane and ER. The FLIPR™ and FDSS6000™ systems (Molecular Devices Corporation, HAMAMATSU Photonics K.K.) are designed to perform functional cell-based assays, such as the measurement of intracellular calcium for high-throughput screening. The measurement of fluorescent is associated with calcium release upon activation of the Gq-coupled receptors.
Fluorometric Imaging Plate Reader system was used to allow for rapid, kinetic measurements of intracellular fluorescence in 96 well microplates (or 384 well microplates). Simultaneous measurements of fluorescence in all wells can be made by FLIPR or FDSS6000™ every second with high sensitivity and precision. These systems are ideal for measuring cell-based functional assays such as monitoring the intracellular calcium fluxes that occur within seconds after activation of the Gq coupled receptor.
Briefly, the cells are seeded into 96 well at 5.5×10^4 cells/well with complete culture media (Dulbecco's Modified Eagle Medium with 10% fetal bovine serum, 2 mM L-glutamine, 1 mM sodium pyruvate and 0.5 mg/mL G418, pH 7.4) for the assay next day. On the day of assay, the media is removed and the cells are incubated with 100 μl of loading buffer (4 μM Fluo-4-AM in complete culture media containing 2.5 mM Probenicid, 0.5 mg/ml and 0.2% bovine serum albumin) in 5% CO2 incubator at 37° C. for 1 hr. The loading buffer is removed, and the cells are washed with wash buffer (Hank's Balanced Salt Solution containing 2.5 mM Probenicid, 20 mM HEPES, 0.5 mg/mL and 0.2% bovine serum albumin, pH 7.4). One hundred fifty μl of wash buffer containing various concentrations of test compound is added to the cells, and the cells are incubated in 5% CO2 incubator at 37° C. for 30 min. Fifty μl of wash buffer containing various concentration of MCH are added to each well, and transient changes in [Ca^2+]i evoked by MCH are monitored using the FLIPR or FDSS in 96 well plates at Ex. 488 nm and Em. 530 nm for 290 second. When antagonist activity of compound is tested, 50 nM of MCH is used.
Use of FLIPR™ and FDSS6000™ can be accomplished by following manufacturer's instruction (Molecular Device Corporation and HAMAMATSU Photonics K.K.).

Where [1] appears, read: class by percent of control at 10^−7 M or by IC50, read-out: class.

As for `Cc1nc(N[C@H]2CC[C@@H](NC(=O)c3cc(C(F)(F)F)cc(C(F)(F)F)c3)CC2)cc(N(C)C)n1` [Example 27, N-(cis-4-{([6-(Dimethylamino)-2-methylpyrimidin-4-yl]amino}cyclohexyl)-3,5-bis-(trifluoromethyl)benzamide hydrochloride], the IC50 under setting [1] is 50 to 200 nM. The same measure, in the same setting: the figure for `Cc1nc(N[C@H]2CC[C@@H](C(=O)Nc3ccc(F)c(Cl)c3)CC2)cc(N(C)C)n1` [Example 191, cis-N-(3-Chloro-4-fluorophenyl)-4-{[6-(dimethylamino)-2-methylpyrimidin-4-yl]amino}cyclohexanecarboxamide hydrochloride] is under 50 nM. The same measure, in the same setting: the figure for `Cc1nc(N[C@H]2CC[C@@H](NC(=O)Oc3ccc(Br)cc3)CC2)cc(N(C)C)n1` [Example 184, 4-Bromophenyl (cis-4-{[6-(dimethylamino)-2-methylpyrimidin-4-yl]amino}cyclohexyl)carbamate] is over 200 nM; for `Cc1nc(Cl)cc(N[C@H]2CC[C@@H](NC(=O)c3cc(F)c(F)c(F)c3)CC2)n1` [Example 172, N-{cis-4-[(6-Chloro-2-methylpyrimidin-4-yl)amino]cyclohexyl}-3,4,5-trifluorobenzamide] it is over 200 nM; for `Cc1cnc(N(C)C)nc1N[C@H]1CC[C@@H](NC(=O)c2ccc(F)c(Cl)c2)CC1` [Example 46, 3-Chloro-N-(cis-4-{[2-(dimethylamino)-5-methylpyrimidin-4-yl]amino}cyclohexyl)-4-fluorobenzamide hydrochloride] it is over 200 nM. With `Cc1nc(N[C@H]2CC[C@@H](NC(=O)c3ccc(OC(F)(F)F)cc3)CC2)cc(N(C)C)n1` [Example 20, N-(cis-4-{[6-(Dimethylamino)-2-methylpyrimidin-4-yl]amino}cyclohexyl)-4-(trifluoromethoxy)benzamide hydrochloride], the IC50 under setting [1] is over 200 nM. On to `CCc1nc(N[C@H]2CC[C@@H](NC(=O)c3ccc(F)c(F)c3)CC2)cc(N(C)C)n1` [Example 32, N-(cis-4-{[6-(Dimethylamino)-2-ethylpyrimidin-4-yl]amino}cyclohexyl)-3,4-difluorobenzamide hydrochloride], for which, under setting [1], the IC50 was under 50 nM. Still for that read-out and setting: the figure for `Cc1nc(N[C@H]2CC[C@@H](NC(=O)c3cccc(F)c3)CC2)cc(N(C)C)n1` [Example 23, N-(cis-4-{[6-(Dimethylamino)-2-methylpyrimidin-4-yl]amino}cyclohexyl)-3-fluorobenzamide hydrochloride] is 50 to 200 nM; for `Cc1nc(N[C@H]2CC[C@@H](NC(=O)c3cc(F)c(F)c(F)c3)CC2)cc(N(C)Cc2ccccc2)n1` [Example 175, N-[cis-4-({6-[Benzyl(methyl)amino]-2-methylpyrimidin-4-yl}amino)cyclohexyl]-3,4,5-trifluorobenzamide hydrochloride] it is over 200 nM. Consider `Cc1nc(N)cc(N[C@H]2CC[C@@H](NC(=O)c3cc(F)c(F)c(F)c3)CC2)n1` [Example 168, N-{cis-4-[(6-Amino-2-methylpyrimidin-4-yl)amino]cyclohexyl}-3,4,5-trifluorobenzamide hydrochloride], for which the IC50 under setting [1] was over 200 nM. Regarding `Cn1cnc2c(N[C@H]3CC[C@@H](NC(=O)c4ccc(F)c(Cl)c4)CC3)ncnc21` [Example 190, 3-Chloro-4-fluoro-N-{cis-4-[(9-methyl-9H-purin-6-yl)amino]cyclohexyl}benzamide hydrochloride], the IC50 under setting [1] is over 200 nM.

In the case of `Cc1nc(N[C@H]2CC[C@@H](NS(=O)(=O)c3ccc(F)c(Cl)c3)CC2)cc(N(C)C)n1` [Example 182, 3-Chloro-N-(cis-4-{[6-(dimethylamino)-2-methylpyrimidin-4-yl]amino}cyclohexyl)-4-fluorobenzenesulfonamide hydrochloride], the IC50 under setting [1] was over 200 nM. Turning to `Cc1nc(N[C@H]2CC[C@@H](NC(=O)c3cc(F)c(F)c(F)c3)CC2)cc(N(C)c2ccccc2)n1` [Example 174, 3,4,5-Trifluoro-N-[cis-4-({2-methyl-6-[methyl(phenyl)amino]pyrimidin-4-yl}amino)-cyclohexyl]benzamide hydrochloride], the IC50 under setting [1] is over 200 nM. Same read-out and setting: the figure for `Cc1nc(N[C@H]2CC[C@@H](C(=O)Nc3ccc(F)c(F)c3)CC2)cc(N(C)C)n1` [Example 192, cis-N-(3,4-Difluorophenyl)-4-{[6-(dimethylamino)-2-methylpyrimidin-4-yl]amino}cyclohexanecarboxamide hydrochloride] is 50 to 200 nM; for `CCN(C)c1cc(N[C@H]2CC[C@@H](NC(=O)c3cc(F)c(F)c(F)c3)CC2)nc(C)n1` [Example 176, N-[cis-4-({6-[Ethyl(methyl)amino]-2-methylpyrimidin-4-yl}amino)cyclohexyl]-3,4,5-trifluorobenzamide hydrochloride] it is over 200 nM. With `Cc1nc(N[C@H]2CC[C@@H](NC(=O)c3ccc(F)cc3)CC2)cc(N(C)C)n1` [Example 7, N-(cis-4-{[6-(Dimethylamino)-2-methylpyrimidin-4-yl]amino}cyclohexyl)-4-fluorobenzamide hydrochloride], the IC50 ([Ca2+]i by FLIPR or FDSS, read-out: IC50) came to 101 nM and the IC50 under setting [1] fell in the range of 50 to 200 nM.

Consider `Cc1nc(N[C@H]2CC[C@@H](NC(=O)c3cc(F)cc(F)c3)CC2)cc(N(C)C)n1` [Example 13, N-(cis-4-{[6-(Dimethylamino)-2-methylpyrimidin-4-yl]amino}cyclohexyl)-3,5-difluorobenzamide hydrochloride], for which, under setting [1], the IC50 fell in the range of 50 to 200 nM. Still for that read-out and setting: the figure for `Cc1nc(N[C@H]2CC[C@@H](NC(=O)c3ccc(Cl)c(F)c3)CC2)cc(N(C)C)n1` [Example 9, 4-Chloro-N-(cis-4-{[6-(dimethylamino)-2-methylpyrimidin-4-yl]amino}cyclohexyl)-3-fluorobenzamide hydrochloride] is 50 to 200 nM; for `Cc1nc(N[C@H]2CC[C@@H](NC(=O)c3ccc(C(F)(F)F)cc3)CC2)cc(N(C)C)n1` [Example 19, N-(cis-4-{[6-(Dimethylamino)-2-methylpyrimidin-4-yl]amino}cyclohexyl)-4-(trifluoromethyl)benzamide hydrochloride] it is over 200 nM. As to `Cc1nc(N[C@H]2CC[C@@H](NC(=O)c3ccc(F)c(Cl)c3)CC2)cc(N2CCCC2)n1` [Example 40, 3-Chloro-4-fluoro-N-{cis-4-[(2-methyl-6-pyrrolidin-1-ylpyrimidin-4-yl)amino]cyclohexyl}-benzamide hydrochloride], the IC50 under setting [1] is under 50 nM.

In the case of `CN(C)c1cc(N[C@H]2CC[C@@H](CNC(=O)c3ccc(F)c(F)c3)CC2)ncn1` [Example 4, N-[(cis-4-{[6-(Dimethylamino)pyrimidin-4-yl]amino}cyclohexyl)methyl]-3,4-difluorobenzamide hydrochloride], under setting [1], the IC50 was over 200 nM. Same read-out and setting: the figure for `CN(C)c1cc(N[C@H]2CC[C@@H](NC(=O)c3ccc(F)c(F)c3)CC2)nc(N(C)C)n1` [Example 33, N-(cis-4-{[2,6-bis(Dimethylamino)pyrimidin-4-yl]amino}cyclohexyl)-3,4-difluorobenzamide hydrochloride] is 50 to 200 nM; for `Cc1nc(N[C@H]2CC[C@@H](NC(=O)c3cc(F)cc(Cl)c3)CC2)cc(N(C)C)n1` [Example 10, 3-Chloro-N-(cis-4-{[6-(dimethylamino)-2-methylpyrimidin-4-yl]amino}cyclohexyl)-5-fluorobenzamide hydrochloride] it is under 50 nM.
